In DBAASP one finds MIC data, which are given here for six compounds.

Some test systems named below: Staphylococcus aureus 15; Klebsiella pneumoniae M6; Streptococcus agalactiae; Escherichia coli 078; Escherichia coli UB1005; Escherichia coli BL21; Escherichia coli E44813.
What all share (test): ≥ marks a high value that may be exact or a test limit, other limits are often not marked, values filed in µg/mL are converted to µM
In experiment [1] the test system is Mannheimia haemolytica 82-25.
Experiment [2] relates to Acinetobacter baumannii AYE.
The test system of experiment [3] is Pseudomonas aeruginosa PAO1.
In experiment [4] the test system is Staphylococcus aureus NCTC 9144.
Experiment [5] deals with Enterococcus faecalis NCTC 12204.
In experiment [6] the test system is Enterococcus faecalis NCTC 12201.
The test system of experiment [7] is Klebsiella pneumoniae NCTC 13368.
For experiment [8], the system named is Acinetobacter baumannii ATCC 17987.
The test system of experiment [9] is Enterococcus faecalis NCTC 775.
Experiment [10] relates to Escherichia coli NCTC 12923.
Experiment [11] concerns Pseudomonas syringae pv. tomato.
Experiment [12] deals with Pseudomonas aeruginosa NCTC 13437.
The test system of experiment [13] is Xanthomonas axonopodis pv. phaseoli.
The subject of experiment [14] is Escherichia coli ATCC 25922.
The subject of experiment [15] is Salmonella enterica subsp. enterica serovar Pullorum ATCC 7913.
Experiment [16] concerns Salmonella enterica subsp. enterica serovar Typhimurium ATCC 14028.
For experiment [17], the system named is Salmonella enterica subsp. enterica serovar Typhimurium C77-31.
In experiment [18] the test system is Streptococcus agalactiae CICC 10465.
For experiment [19], the system named is Staphylococcus epidermidis ATCC 12228.
Experiment [20] relates to Pseudomonas aeruginosa ATCC 27853.
Experiment [21] deals with Lacticaseibacillus rhamnosus 7469.
The test system of experiment [22] is Staphylococcus aureus ATCC 25923.
The test system of experiment [23] is Staphylococcus aureus ATCC 29213.
Experiment [24] relates to Streptococcus thermophilus YM-C.
Experiment [25] deals with Staphylococcus epidermidis.
For experiment [26], the system named is Staphylococcus aureus ATCC BAA-41.
Experiment [27] has as its system Staphylococcus aureus ATCC 6538P.
Experiment [28] concerns Pseudomonas aeruginosa ATCC 47085.
Experiment [29] concerns Staphylococcus aureus ATCC 35556.
In experiment [30] the test system is Acinetobacter baumannii ATCC 19606.
For experiment [31], the system named is Escherichia coli D31 CGSC 5165.
The subject of experiment [32] is Staphylococcus epidermidis LY8.
In experiment [33] the test system is Pasteurella multocida C48-3.
Experiment [34] deals with Listeria monocytogenes CICC 21533.
Experiment [35] deals with Salmonella enterica subsp. enterica serovar Choleraesuis C78-1.
For experiment [36], the system named is Shigella flexneri CICC 21534.
Experiment [37] deals with Salmonella typhimurium SL1344.
For experiment [38], the system named is Bacillus subtilis CICC 24434.

Converted amounts (≈) assume the structure as drawn.

As usually defined, the MIC is the lowest concentration that inhibits growth of the organism. A low value points to greater potency. In the case of `C[C@H](N)C(=O)N[C@@H](C)C(=O)N[C@@H](CC(=O)O)C(=O)N[C@@H](CC(=O)O)C(=O)N[C@@H](CC(=O)O)C(=O)N[C@@H](CC(=O)O)C(=O)N[C@@H](CC(=O)O)C(=O)O` [AADDDDD], the minimal inhibitory concentration (MIC) in experiment [1] was found to be 30 µM (≈ 22.1 µg/mL).

Regarding `CC[C@H](C)[C@H](NC(=O)[C@H](CCC(=O)O)NC(=O)[C@H](CC(N)=O)NC(=O)[C@H](CCCCN)NC(=O)[C@H](CC(C)C)NC(=O)[C@H](CCCCN)NC(=O)[C@H](CCCCN)NC(=O)[C@H](CCCN=C(N)N)NC(=O)[C@@H](NC(=O)[C@H](CCCCN)NC(=O)[C@H](CCC(=O)O)NC(=O)[C@H](CCCCN)NC(=O)[C@H](Cc1c[nH]c2ccccc12)NC(=O)[C@H](C)N)[C@@H](C)CC)C(=O)N[C@@H](CCCCN)C(=O)N[C@@H](CCCCN)C(=O)N[C@@H](CCCCN)C(=O)NCC(=O)N[C@@H](CCCN=C(N)N)C(=O)N[C@@H](CCCCN)C(=O)N[C@@H](C)C(=O)N[C@H](C(=O)N[C@H](C(=O)N[C@@H](C)C(=O)N[C@@H](Cc1c[nH]c2ccccc12)C(=O)O)[C@@H](C)CC)C(C)C` [AWKEKIRKKLKNEIKKKGRKAVIAW], the MIC was 2.62 µM (≈ 8 µg/mL) in experiment [2]; greater than 42 µM in experiment [3]; 5.24 µM (≈ 16 µg/mL) in experiment [4]; no less than 42 µM in [5]; no less than 42 µM in experiment [6]; no less than 42 µM in experiment [7]. Also, the minimum inhibitory concentration (MIC) in the experiment on Staphylococcus aureus 15 was no less than 42 µM; in [8] it was 5.24 µM (≈ 16 µg/mL); in [9], no less than 42 µM; against Klebsiella pneumoniae M6, no less than 42 µM; in experiment [10], 2.62 µM (≈ 8 µg/mL); in [11], 0.164 µM (≈ 0.5 µg/mL). Besides, the minimal inhibitory concentration (MIC) in experiment [12] is no less than 42 µM; in experiment [13] it was 0.164 µM (≈ 0.5 µg/mL).

As to `CC[C@H](C)[C@H](NC(=O)[C@H](CC(C)C)NC(=O)[C@@H](NC(=O)[C@@H](N)CC(=O)O)[C@@H](C)CC)C(=O)N[C@H](C(=O)N[C@H](C(=O)NCC(=O)NCC(N)=O)C(C)C)[C@@H](C)CC` [DILIIVGG], the MIC in [14] was greater than 64 µM; in experiment [15] it was no less than 64 µM; in experiment [16], greater than 64 µM; in [17], no less than 64 µM; in experiment [18] it was no less than 64 µM; with Streptococcus agalactiae it was no less than 64 µM. Moreover, the MIC in experiment [19] is greater than 64 µM; against Escherichia coli 078, no less than 64 µM; in experiment [20], greater than 64 µM; against Escherichia coli UB1005, no less than 64 µM; in experiment [21], no less than 64 µM; in experiment [22], greater than 64 µM. Also, the minimal inhibitory concentration (MIC) in [23] is greater than 64 µM; in experiment [24], no less than 64 µM.

On to `CC[C@H](C)[C@H](NC(=O)[C@H](CCCCN)NC(=O)[C@H](CCCCN)NC(=O)[C@H](Cc1ccccc1)NC(=O)[C@H](CC(C)C)NC(=O)[C@H](CCCCN)NC(=O)[C@H](Cc1c[nH]c2ccccc12)NC(=O)[C@@H](N)CCCCN)C(=O)NCC(=O)N[C@@H](CCCCN)C(=O)N[C@H](C(=O)N[C@@H](CC(C)C)C(=O)N[C@@H](CCCCN)C(=O)N[C@H](C(=O)N[C@@H](CC(C)C)C(=O)O)C(C)C)C(C)C` [KWKLFKKIGKVLKVL], for which the MIC in [25] was found to be 0.5 µM (≈ 0.914 µg/mL); in experiment [3], 1.41 µM (≈ 2.59 µg/mL); in experiment [26], 4 µM (≈ 7.31 µg/mL); in experiment [27] it was 1.41 µM (≈ 2.59 µg/mL); against Escherichia coli BL21 it was 0.707 µM (≈ 1.29 µg/mL).

Regarding `CC[C@H](C)[C@H](NC(=O)[C@H](CCCN=C(N)N)NC(=O)CNC(=O)[C@H](CC(C)C)NC(=O)[C@@H](NC(=O)[C@H](C)NC(=O)[C@H](CCCN=C(N)N)NC(=O)CNC(=O)[C@H](C)NC(=O)CNC(=O)[C@H](CCCN=C(N)N)NC(=O)[C@H](CCSC)NC(=O)[C@H](CCCN=C(N)N)NC(=O)[C@@H](NC(=O)[C@H](Cc1c[nH]c2ccccc12)NC(=O)[C@H](CC(C)C)NC(=O)[C@H](CCC(=O)O)NC(=O)[C@H](CCCN=C(N)N)NC(=O)[C@H](CC(C)C)NC(=O)[C@@H](N)CC(C)C)[C@@H](C)O)C(C)C)C(=O)N[C@@H](CCCN=C(N)N)C(=O)NCC(=O)N[C@@H](CC(C)C)C(=O)N[C@@H](CC(C)C)C(=O)O` [LLRELWTRMRGAGRAVLGRIRGLL], the MIC in [28] turned out to be 15 µM (≈ 41.5 µg/mL); in [29], 1.88 µM (≈ 5.2 µg/mL); in [30], 0.94 µM (≈ 2.6 µg/mL); in experiment [31] it was 0.94 µM (≈ 2.6 µg/mL).

In the case of `CC[C@H](C)[C@H](NC(=O)[C@@H](NC(=O)[C@H](Cc1ccccc1)NC(=O)[C@H](CCCCN)NC(=O)[C@@H]1CCCN1C(=O)[C@H](CCCCN)NC(=O)[C@H](CCC(N)=O)NC(=O)[C@@H]1CCCN1C(=O)[C@H](CCCN=C(N)N)NC(=O)[C@H](CCCN=C(N)N)NC(=O)[C@@H](NC(=O)[C@H](CCCN=C(N)N)NC(=O)[C@H](Cc1c[nH]c2ccccc12)NC(=O)[C@H](CC(C)C)NC(=O)[C@H](CC(C)C)NC(=O)[C@H](CC(=O)O)NC(=O)[C@@H](NC(=O)[C@@H](NC(=O)[C@@H](N)CCCN=C(N)N)[C@@H](C)CC)[C@@H](C)CC)C(C)C)C(C)C)C(=O)N[C@H](C(=O)N[C@@H](Cc1c[nH]c2ccccc12)C(=O)N[C@H](C(=O)N[C@@H](CCCN=C(N)N)C(=O)O)C(C)C)C(C)C` [RIIDLLWRVRRPQKPKFVIVWVR], the minimum inhibitory concentration (MIC) is 8.4 µM (≈ 25 µg/mL) in [32]; 1.05 µM (≈ 3.12 µg/mL) in experiment [33]; no less than 42 µM in experiment [34]; 0.262 µM (≈ 0.78 µg/mL) in experiment [35]; 25.2 µM (≈ 75 µg/mL) in experiment [36]; 0.0084 µM (≈ 0.025 µg/mL) in experiment [22]. Moreover, the results for the MIC (in [37]; in the experiment on Escherichia coli E44813; in experiment [38]) were 0.524 µM (≈ 1.56 µg/mL), 4.2 µM (≈ 12.5 µg/mL) and 0.524 µM (≈ 1.56 µg/mL), respectively.
